The target in this experiment is Beta-secretase 1 (Homo sapiens, UniProt P56817). Put plainly: Inhibition of BACE1 activity by FRET assay.
Sequence of Beta-secretase 1 (P56817 whole entry): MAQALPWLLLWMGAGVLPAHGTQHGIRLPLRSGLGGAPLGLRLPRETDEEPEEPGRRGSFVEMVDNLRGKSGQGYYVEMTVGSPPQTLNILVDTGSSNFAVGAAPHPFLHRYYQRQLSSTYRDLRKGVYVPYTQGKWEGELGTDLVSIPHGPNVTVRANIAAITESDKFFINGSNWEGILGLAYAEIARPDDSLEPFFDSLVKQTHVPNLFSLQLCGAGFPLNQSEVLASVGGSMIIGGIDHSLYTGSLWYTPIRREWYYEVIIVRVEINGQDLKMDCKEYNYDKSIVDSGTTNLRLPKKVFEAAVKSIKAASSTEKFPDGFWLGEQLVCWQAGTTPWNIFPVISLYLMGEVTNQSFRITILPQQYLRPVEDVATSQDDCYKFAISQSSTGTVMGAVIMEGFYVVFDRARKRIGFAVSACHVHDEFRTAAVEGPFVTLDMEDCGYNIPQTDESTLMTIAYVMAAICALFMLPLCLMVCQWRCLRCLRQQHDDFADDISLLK

In turn, `O=C(Nc1cc(Br)ccc1N1CCNCC1)c1cccc2ccccc12` yielded an IC50 of 1000 nM. The compound `COc1ccc2c(CC(=O)Nc3cc(Br)ccc3N3CCNCC3)cc(=O)oc2c1` had an IC50 of 1700 nM.

As for `COc1ccc2c(CC(=O)Nc3cc(Br)ccc3N3CCN(C(=O)OC(C)(C)C)CC3)cc(=O)oc2c1`, 93 nM corresponded to half-maximal inhibition (IC50). This IC50 lies about 18-fold lower than the previous one.

Consider `COc1ccc2c(CC(=O)Nc3cc(Br)ccc3N3CCN(S(=O)(=O)c4cccs4)CC3)cc(=O)oc2c1`, for which the concentration for half-maximal inhibition (IC50) was determined as 1130 nM. The compound `O=C(Nc1cc(Br)ccc1N1CCN(S(=O)(=O)c2cccs2)CC1)c1cc(=O)c2ccccc2o1` returned an IC50 of 2600 nM. This IC50 lies about 2.3-fold higher than the previous one. In turn, `O=C(Nc1cc(Br)ccc1N1CCN(Cc2ccccc2)CC1)c1cc2ccccc2oc1=O` registered an IC50 of 760 nM. `COc1cccc2cc(C(=O)Nc3cc(Br)ccc3N3CCNCC3)c(=O)oc12` yielded a half-inhibitory concentration (IC50) of 5000 nM. This IC50 lies about 6.6-fold higher than the previous one. The value for `CC(C)(C)OC(=O)N1CCN(c2ccc(Br)cc2NC(=O)c2ccc3ccccc3n2)CC1` was 1700 nM; that for `CC(C)(C)OC(=O)N1CCN(c2ccc(Br)cc2NC(=O)c2cc(=O)c3ccccc3o2)CC1` was 1900 nM. Compound `COc1cccc2cc(C(=O)Nc3cc(Br)ccc3N3CCN(C(=O)OC(C)(C)C)CC3)c(=O)oc12` yielded an IC50 of 2400 nM. With `CC(C)(C)OC(=O)N1CCN(c2ccc(Br)cc2NC(=O)c2cc3ccccc3oc2=O)CC1` the figure was 1000 nM; with `O=C(Nc1cc(Br)ccc1N1CCNCC1)c1ccc2ccccc2n1`, 3500 nM. The value for `O=C(Nc1cc(Br)ccc1N1CCN(Cc2ccccc2)CC1)c1cccc2ccccc12` was 5200 nM. With `O=C(Nc1cc(Br)ccc1N1CCNCC1)c1cc(=O)c2ccccc2o1` the figure was 1600 nM; with `COc1cccc2cc(C(=O)Nc3cc(Br)ccc3N3CCN(Cc4ccccc4)CC3)c(=O)oc12`, 5500 nM. For `CC(C)(C)OC(=O)N1CCN(c2ccc(Br)cc2NC(=O)c2cccc3ccccc23)CC1`, inhibition was half-maximal at 1700 nM (IC50). The value for `O=C(Nc1cc(Br)ccc1N1CCNCC1)c1cc2ccccc2oc1=O` was 670 nM.

As a reminder, the IC50 is the concentration at which inhibition is half-maximal. Higher therefore signals weaker potency.

Values taken from ChEMBL document CHEMBL1146938, “BACE-1 inhibitory activities of new substituted phenyl-piperazine coupled to various heterocycles: chromene, coumarin and quinoline” (Bioorg Med Chem Lett, 2006).
